2 compounds from patent US20080216197A1, “Polypeptide Having Function Related to Pyridoxine Biosynthesis, Polynucleotide Coding the Polypeptide, and Those Use” (Genomine, Inc., priority 2005, published 2008) can be followed below.

Molecules are shown by their SMILES. Counter-ions that a name gives are not always drawn.

Test [1] relates to mutant Arabidopsis thaliana. Description: Phenotype recovery of mutant T2 plants on pyridoxine-supplemented MS medium. The class given is in vivo. The conditions noted are these: 2.5 mg/L pyridoxine-HCl in MS medium, 30 seeds/Petri dish, slight etiolation observed, FIG. 7. Here is the method: The analysis of the AtPDX5 domain led to the inference that the AtPDX5 gene might have an enzymatic function involved in the pyridoxine biosynthesis pathway. To examine this, T2 plants of the mutant Arabidopsis thaliana were cultured in Petri dishes containing a 2.5 mg/L pyridoxine-HCl (Sigma, USA)-supplemented MS medium (30 seeds/Petri dish). […] In addition, the etiolation of the mutant plants was believed to be attributed to a low content of pyridoxine in the medium. Based on the fact that the phenotype recovery was induced by the addition of pyridoxine, the AtPDX5 gene is concluded to be directly responsible for pyridoxine biosynthesis. As described hereinbefore, T2 plants of the mutant Arabidopsis thaliana have the phenotype properties of significant growth delay, etiolation throughout leaves, and death in an early stage, and the mutant Arabidopsis thaliana can have the same phenotype as that of the wild-type in the presence of pyridoxine.

In a further test the test system is Arabidopsis thaliana. Kind of test: PPT treatment of T2 plants grown in Petri dishes (segregation check). The class given is in vivo. The conditions noted are these: 12.5 mg/L PPT.

As for `Cc1ncc(CO)c(CO)c1O` [pyridoxine-HCl, 2-methyl-3-hydroxy-4,5-di(hydroxymethyl)pyridine], the “phenotype (growth delay) of the mutant versus the wild-type” value in test [1] is reported as “no significant difference in phenotype”.
Take `CP(=O)(O)CC[C@H](N)C(=O)O` [PPT, phosphinothricin]: in the test with Arabidopsis thaliana, the “effect on the five plants having a wild-type phenotype” value is given as “converted to a fatal phenotype”; the “effect on the other 25 plants (etiolation and retarded growth phenotype)” value was “remained unchanged”.
